Laboratory results: PMC11005379, “Control of three-carbon amino acid homeostasis by promiscuous importers and exporters in Bacillus subtilis: role of the “sleeping beauty” amino acid exporters” (mBio, 2024)

Key:
Assay type in all cases: cell-based
AimA = target: T1, AimA (Bacillus subtilis, UniProt Q45577); assay: radiolabelled substrate uptake, wild type against deletion strain; conditions: labelled compound, 30 mM beta-alanine, C-Glc minimal medium, intact cells
T1 construct: native full-length APC superfamily permease in intact B. subtilis cells; wild type 168 against deltaaimA (GP3590)
T1 sequence (Q45577 1-539): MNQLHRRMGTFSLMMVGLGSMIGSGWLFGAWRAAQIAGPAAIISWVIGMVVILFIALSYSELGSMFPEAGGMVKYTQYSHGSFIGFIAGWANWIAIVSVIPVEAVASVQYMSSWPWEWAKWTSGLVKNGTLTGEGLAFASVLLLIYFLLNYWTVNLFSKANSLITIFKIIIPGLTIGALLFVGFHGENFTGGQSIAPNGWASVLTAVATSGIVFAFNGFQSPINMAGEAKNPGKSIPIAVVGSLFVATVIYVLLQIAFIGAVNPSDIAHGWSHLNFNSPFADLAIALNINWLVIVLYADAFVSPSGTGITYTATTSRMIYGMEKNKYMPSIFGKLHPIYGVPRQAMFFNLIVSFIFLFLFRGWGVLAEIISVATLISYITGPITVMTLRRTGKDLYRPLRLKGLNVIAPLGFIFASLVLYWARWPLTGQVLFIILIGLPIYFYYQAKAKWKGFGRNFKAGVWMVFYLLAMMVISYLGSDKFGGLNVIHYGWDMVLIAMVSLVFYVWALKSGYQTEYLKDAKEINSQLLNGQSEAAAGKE

AlaP = target: T2, AlaP (Bacillus subtilis, UniProt O34618); assay: as above; conditions: labelled compound, 30 mM beta-alanine, C-Glc minimal medium, intact cells
T2 construct: gene ytnA; native full-length APC superfamily permease in intact B. subtilis cells
T2 sequence (O34618 1-463): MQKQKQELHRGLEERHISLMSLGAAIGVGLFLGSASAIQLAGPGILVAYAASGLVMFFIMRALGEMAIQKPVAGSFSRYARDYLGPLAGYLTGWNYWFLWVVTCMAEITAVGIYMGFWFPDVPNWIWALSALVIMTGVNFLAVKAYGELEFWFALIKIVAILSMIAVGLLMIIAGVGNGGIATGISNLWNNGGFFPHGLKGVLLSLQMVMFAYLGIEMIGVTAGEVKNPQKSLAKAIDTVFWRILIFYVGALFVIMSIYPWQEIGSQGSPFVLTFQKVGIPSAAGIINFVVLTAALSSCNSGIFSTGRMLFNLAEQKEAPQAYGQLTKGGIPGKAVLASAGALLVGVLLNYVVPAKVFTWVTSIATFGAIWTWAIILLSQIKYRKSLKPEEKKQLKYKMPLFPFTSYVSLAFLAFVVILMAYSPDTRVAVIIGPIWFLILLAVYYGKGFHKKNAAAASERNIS

AexA (YdeD) = target: T3, AexA (YdeD) (Bacillus subtilis, UniProt P96661); assay: intracellular accumulation of radiolabelled substrate, overexpressing against deletion strain; conditions: labelled compound; 30 mM beta-alanine; C-Glc minimal medium; export; intact cells
T3 construct: native full-length EamA family exporter in intact B. subtilis cells; chromosomal gene overexpressed by aerA Y179D (GP4117) against aerA Y179D deltaaexA (GP3958)
T3 sequence (P96661 1-319): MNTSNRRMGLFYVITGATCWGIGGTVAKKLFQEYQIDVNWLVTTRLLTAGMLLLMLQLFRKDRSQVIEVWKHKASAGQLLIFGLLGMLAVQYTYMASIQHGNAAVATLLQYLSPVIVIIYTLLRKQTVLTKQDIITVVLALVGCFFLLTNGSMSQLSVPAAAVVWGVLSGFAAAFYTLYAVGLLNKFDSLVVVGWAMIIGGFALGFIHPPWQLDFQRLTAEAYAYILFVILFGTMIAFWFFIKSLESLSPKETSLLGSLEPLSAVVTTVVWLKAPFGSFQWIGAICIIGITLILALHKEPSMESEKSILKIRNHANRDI

## NCCC(=O)O [β-alanine]
AimA
  radiolabelled substrate uptake, wild type against deletion strain: a severe reduction was observed in the alaP and aimA mutants
AlaP
  radiolabelled substrate uptake, wild type against deletion strain: a severe reduction was observed in the alaP and aimA mutants
AexA (YdeD)
  intracellular accumulation of radiolabelled substrate, overexpressing against de: clearly demonstrates that AexA indeed acts as an exporter for β-alanine
